# Columns and labels:
# Format in all cases: in vivo
# Stellaria media = test: Test Example 5: herbicidal effect by foliage application, plastic box (symbol P); settings: 320 g/ha, 3 weeks after application
# Procedure, shortened: (§1)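 Sowing in sterilized diluvial soil, 14 days' greenhouse growth at 25° C. to 30° C., then uniform small-sprayer foliar application of aqueous emulsion dilution; plants scored three weeks afterwards.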
# [1] = system: Echinochloa crus-galli var. crus-galli; test: Test Example 5: herbicidal effect by foliage application, plastic box (symbol H); settings: 320 g/ha, 3 weeks after application
# Procedure, shortened: as §1
# Apera spica-venti = test: Test Example 5: herbicidal effect by foliage application, plastic box (symbol L); settings: 320 g/ha, 3 weeks after application
# Procedure, shortened: as §1
# Amaranthus retroflexus = test: Test Example 5: herbicidal effect by foliage application, plastic box (symbol N); settings: 320 g/ha, 3 weeks after application
# Procedure, shortened: as §1
# rapeseed = test: Test Example 5: effect on crop by foliage application, plastic box (symbol g); settings: 320 g/ha, 3 weeks after application
# Procedure, shortened: (§2)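 A greenhouse held between 25° C. and 30° C. was used to grow plants sown spot-wise, beneath ~1.5 cm of soil, in boxes of sterilized diluvial soil.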
# Cyperus difformis = test: Test Example 3: herbicidal effect by foliage application, Wagner pot (symbol E); settings: application herbicide amount 320 g/ha
# Procedure, shortened: (§3)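 Seeds sown in alluvial soil kept under 0.1–0.5 cm water, greenhouse 25–30 °C; 14 d growth. Leaves treated by small sprayer with water-diluted emulsion at a predetermined rate. Effect graded by set scale, 3 weeks.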
# Digitaria ciliaris = test: Test Example 5: herbicidal effect by foliage application, plastic box (symbol F); settings: 320 g/ha, 3 weeks after application
# Procedure, shortened: as §1
# Lolium multiflorum Lam. = test: Test Example 5: herbicidal effect by foliage application, plastic box (symbol K); settings: 320 g/ha, 3 weeks after application
# Procedure, shortened: as §1
# rice plant = test: Test Example 5: effect on crop by foliage application, plastic box (symbol b); settings: 320 g/ha, 3 weeks after application
# Procedure, shortened: as §2
# Abutilon theophrasti = test: Test Example 5: herbicidal effect by foliage application, plastic box (symbol M); settings: 320 g/ha, 3 weeks after application
# Procedure, shortened: as §1
# Avena fatua = test: Test Example 5: herbicidal effect by foliage application, plastic box (symbol I); settings: 320 g/ha, 3 weeks after application
# Procedure, shortened: as §1
# Leptochloa chinensis = test: Test Example 3: herbicidal effect by foliage application, Wagner pot (symbol D); settings: application herbicide amount 320 g/ha
# Procedure, shortened: as §3
# soybean = test: Test Example 5: effect on crop by foliage application, plastic box (symbol d); settings: 320 g/ha, 3 weeks after application
# Procedure, shortened: as §2
# beet = test: Test Example 5: effect on crop by foliage application, plastic box (symbol f); settings: 320 g/ha, 3 weeks after application
# Procedure, shortened: as §2
# [2] = system: Echinochloa crus-galli var. crus-galli; test: Test Example 3: herbicidal effect by foliage application, Wagner pot (symbol H); settings: application herbicide amount 320 g/ha
# Procedure, shortened: as §3
# Alopecurus myosuroides = test: Test Example 5: herbicidal effect by foliage application, plastic box (symbol J); settings: 320 g/ha, 3 weeks after application
# Procedure, shortened: as §1
# Galium spurium = test: Test Example 5: herbicidal effect by foliage application, plastic box (symbol Q); settings: 320 g/ha, 3 weeks after application
# Procedure, shortened: as §1
# Chenopodium album = test: Test Example 5: herbicidal effect by foliage application, plastic box (symbol O); settings: 320 g/ha, 3 weeks after application
# Procedure, shortened: as §1
# [3] = system: directly sowed rice plant; test: Test Example 3: effect on crop by foliage application, Wagner pot (symbol b); settings: application herbicide amount 320 g/ha
# Procedure, shortened: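 Steps: fill a 1/10000-are Wagner pot with alluvial soil; add water and mix to submerge at 0.1–0.5 cm depth; sow rice plus Echinochloa crus-galli var. crus-galli, Leptochloa chinensis and Cyperus difformis; grow in a 25–30 °C greenhouse.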
# corn = test: Test Example 5: effect on crop by foliage application, plastic box (symbol c); settings: 320 g/ha, 3 weeks after application
# Procedure, shortened: as §2
# Veronica persica = test: Test Example 5: herbicidal effect by foliage application, plastic box (symbol R); settings: 320 g/ha, 3 weeks after application
# Procedure, shortened: as §1
# wheat = test: Test Example 5: effect on crop by foliage application, plastic box (symbol e); settings: 320 g/ha, 3 weeks after application
# Procedure, shortened: as §2
# Setaria viridis = test: Test Example 5: herbicidal effect by foliage application, plastic box (symbol G); settings: 320 g/ha, 3 weeks after application
# Procedure, shortened: as §1
smiles,measurement,setting,value
CON=C(C)CC1CC(OC)=C(c2c(C)cc(C=Cc3ccccc3)cc2C)C1=O (centres unmarked) [6-068],"P: Stellaria media, herbicidal effect (criteria of Test Example 1)",Stellaria media,2 (Herbicidal ratio of 20% or higher and lower than 40%)
same,"H: Echinochloa crus-galli var. crus-galli, herbicidal effect (criteria of Test Example 1)",[1],3 (Herbicidal ratio of 40% or higher and lower than 70%)
same,"L: Apera spica-venti, herbicidal effect (criteria of Test Example 1)",Apera spica-venti,0 (Herbicidal ratio of 5% or lower (almost no effect))
same,"N: Amaranthus retroflexus, herbicidal effect (criteria of Test Example 1)",Amaranthus retroflexus,0 (Herbicidal ratio of 5% or lower (almost no effect))
same,"g: rapeseed, effect on crop (criteria of Test Example 1)",rapeseed,2 (Herbicidal ratio of 20% or higher and lower than 40%)
same,"herbicidal effect on E, grade 0-5",Cyperus difformis,0 (Herbicidal ratio of 5% or lower (almost no effect))
same,"F: Digitaria ciliaris, herbicidal effect (criteria of Test Example 1)",Digitaria ciliaris,0 (Herbicidal ratio of 5% or lower (almost no effect))
same,"K: Lolium multiflorum Lam., herbicidal effect (criteria of Test Example 1)",Lolium multiflorum Lam.,0 (Herbicidal ratio of 5% or lower (almost no effect))
same,"b: directly sowed rice plant, effect on crop (criteria of Test Example 1)",rice plant,1 (Herbicidal ratio of 5% or higher and lower than 20%)
same,"M: Abutilon theophrasti, herbicidal effect (criteria of Test Example 1)",Abutilon theophrasti,0 (Herbicidal ratio of 5% or lower (almost no effect))
same,"I: Avena fatua, herbicidal effect (criteria of Test Example 1)",Avena fatua,0 (Herbicidal ratio of 5% or lower (almost no effect))
same,"herbicidal effect on D (Leptochloa chinensis), grade 0-5",Leptochloa chinensis,2 (Herbicidal ratio of 20% or higher and lower than 40%)
same,"d: soybean, effect on crop (criteria of Test Example 1)",soybean,0 (Herbicidal ratio of 5% or lower (almost no effect))
same,"f: beet, effect on crop (criteria of Test Example 1)",beet,0 (Herbicidal ratio of 5% or lower (almost no effect))
same,"herbicidal effect on H (Echinochloa crus-galli var. crus-galli), grade 0-5",[2],0 (Herbicidal ratio of 5% or lower (almost no effect))
same,"J: Alopecurus myosuroides, herbicidal effect (criteria of Test Example 1)",Alopecurus myosuroides,0 (Herbicidal ratio of 5% or lower (almost no effect))
same,"Q: Galium spurium, herbicidal effect (criteria of Test Example 1)",Galium spurium,0 (Herbicidal ratio of 5% or lower (almost no effect))
same,"O: Chenopodium album, herbicidal effect (criteria of Test Example 1)",Chenopodium album,0 (Herbicidal ratio of 5% or lower (almost no effect))
same,"effect on crop b (directly sowed rice plant), grade 0-5",[3],0 (Herbicidal ratio of 5% or lower (almost no effect))
same,"c: corn, effect on crop (criteria of Test Example 1)",corn,4 (Herbicidal ratio of 70% or higher and lower than 90%)
same,"R: Veronica persica, herbicidal effect (criteria of Test Example 1)",Veronica persica,0 (Herbicidal ratio of 5% or lower (almost no effect))
same,"e: wheat, effect on crop (criteria of Test Example 1)",wheat,0 (Herbicidal ratio of 5% or lower (almost no effect))
same,"G: Setaria viridis, herbicidal effect (criteria of Test Example 1)",Setaria viridis,3 (Herbicidal ratio of 40% or higher and lower than 70%)

# — patent US11000033B2, “Ketone or oxime compound, and herbicide” (NISSAN CHEMICAL CORPORATION, priority 2014, dated 2021)
